Source: patent US6448228B1, “Dipeptide compounds having a high fungicidal activity and their agronomic use” (Isagro Ricerca S.r.l., priority 1998, dated 2002)
Like-named read-outs stand apart in the source and are kept apart here.

Test system: Plasmopara viticola
Experiment: Fungicidal effectiveness against Peronospora (Plasmopara viticola) in preventive leaf application on vines
Format: in vivo
Conditions: 168 h, read-out: Effectiveness expressed as leaf diffusion control % of the disease with respect to a non-treated reference
Procedure: Determination of the Fungicidal Effectiveness Against Peronospora (Plasmapara viticola) of Compounds Having Formula (I) and (II) in Preventive Leaf Application
Cultivar Dolcetto vine leaves, grown in vases in a conditioned environment (20±1° C.), 70% relative humidity), are treated by spraying both sides of the leaves with compounds 1-7 dispersed in a hydroacetone solution at 20% by volume of acetone.
After remaining 24 hours in a conditioned environment, the plants are sprayed on both sides of the leaf with an aqueous suspension of conidia of Plasmopara viticola (200,000 conidia per cm^3).
The plants are kept in a humidity saturated environment, at 21° C., for the incubation period of the fungus and, at the end of this period (7 days), the fungicidal activity is evaluated according to an evaluation percentage scale from 100 (healthy plant) to 0 (completely infected plant).

[1] = Dose 0.45 g/hl, preventive leaf application on Dolcetto vines, inoculation 24 hours after treatment, evaluation after 7 days, scale 100 (healthy plant) to 0 (completely infected plant)
[2] = Dose 1.8 g/hl, preventive leaf application on Dolcetto vines, inoculation 24 hours after treatment, evaluation after 7 days, scale 100 (healthy plant) to 0 (completely infected plant)
[3] = Dose 7.5 g/hl, preventive leaf application on Dolcetto vines, inoculation 24 hours after treatment, evaluation after 7 days, scale 100 (healthy plant) to 0 (completely infected plant)
[4] = Dose 30 g/hl, preventive leaf application on Dolcetto vines, inoculation 24 hours after treatment, evaluation after 7 days, scale 100 (healthy plant) to 0 (completely infected plant)

Compound | pest or weed control at 0.45 g/hl [1] [%] | pest or weed control at 1.8 g/hl [2] [%] | pest or weed control at 7.5 g/hl [3] [%] | pest or weed control at 30 g/hl [4] [%] | pest or weed control at 0.45 g/hl [%] | pest or weed control at 1.8 g/hl [%] | pest or weed control at 7.5 g/hl [%] | pest or weed control at 30 g/hl [%]
COC(=O)CC(NC(=O)[C@@H](NC(=O)OC(C)C)C(C)C)c1ccccc1 (stereo partly shown) [Reference 3, reference compound] | 10 | 55 | 91 | 100 |  |  |  | 
COC(=O)C(C)(C)C(NC(=O)[C@@H](NC(=O)OC(C)C)C(C)C)c1ccccc1 (stereo partly shown) [Reference 4, reference compound] | 15 | 55 | 75 | 90 |  |  |  | 
COC(=O)CC(NC(=O)[C@@H](NC(=O)OC(C)C)C(C)C)c1ccc(Cl)cc1 (mixture of isomers) [Compound 1, methyl (±)RS-[3-(N-isopropoxy-carbonyl-S-valinyl)amino]-3-(4-chlorophenyl)propanoate] | 80 | 100 | 100 | 100 |  |  |  | 
COC(=O)CC(NC(=O)[C@@H](NC(=O)OC(C)(C)C)C(C)C)c1ccccc1 (stereo partly shown) [Reference 1, reference compound] | 0 | 20 | 90 | 100 |  |  |  | 
COC(=O)CC(NC(=O)[C@@H](NC(=O)OC(C)C)C(C)C)c1ccc(C)cc1 (stereo partly shown) [Compound 4, methyl RS-[3-(N-isopropoxycarbonyl-S-valinyl)amino]-3-(4-methylphenyl)propanoate] | 75 | 100 | 100 | 100 |  |  |  | 
COC(=O)CC(NC(=O)[C@@H](NC(=O)OC(C)(C)C)C(C)C)c1ccc(Cl)cc1 (stereo partly shown) [Reference 2, reference compound] | 30 | 65 | 88 | 100 |  |  |  | 
COC(=O)CC(NC(=O)[C@@H](NC(=O)OC(C)C)C(C)C)c1nc2cc(Cl)ccc2s1 (mixture of isomers) [Compound 9, methyl (±)RS-[3-(N-isopropoxycarbonyl-S-valinyl)amino]-3-(5-chlorobenzothiazol-2-yl)propanoate] | 90 | 100 | 100 | 100 |  |  |  | 
CC(C)OC(=O)CC(NC(=O)[C@@H](NC(=O)OC(C)C)C(C)C)c1ccccc1 (stereo partly shown) [Reference 5, reference compound] | 0 | 15 | 75 | 96 |  |  |  | 
CCc1ccc(C(CC(=O)OC)NC(=O)[C@@H](NC(=O)Oc2ccccc2)C(C)C)cc1 (stereo partly shown) [Compound 5, methyl RS-[3-(N-phenoxycarbonyl-S-valinyl)amino]-3-(4-ethylphenyl)propanoate] |  |  |  |  | 70 | 90 | 100 | 100
COC(=O)CC(NC(=O)[C@@H](NC(=O)OC(C)C)C(C)C)c1ccc(C#N)cc1 (stereo partly shown) [Compound 7, methyl RS-[3-(N-isopropoxycarbonyl-S-valinyl)amino]-3-(4-cyanophenyl)propanoate] | 67 | 90 |  | 100 |  |  |  | 
COC(=O)C[C@@H](NC(=O)[C@@H](NC(=O)OC(C)C)C(C)C)c1ccc(Cl)cc1 (racemic) [Compound 2, methyl (±)R-[3-(N-isopropoxycarbonyl-S-valinyl)amino]-3-(4-chlorophenyl)propanoate] | 100 | 100 | 100 | 100 |  |  |  | 
COC(=O)C[C@H](NC(=O)[C@@H](NC(=O)OC(C)C)C(C)C)c1ccc(Cl)cc1 [Compound 3, methyl (−)S-[3-(N-isopropoxycarbonyl-S-valinyl)amino]-3-(4-chlorophenyl)propanoate] | 65 | 85 | 100 | 100 |  |  |  | 
COC(=O)CC(NC(=O)[C@@H](NC(=O)OC(C)C)C(C)C)c1ccc(OC)cc1 (stereo partly shown) [Compound 6, methyl RS-[3-(N-isopropoxycarbonyl-S-valinyl)amino]-3-(4-methoxyphenyl)propanoate] | 65 | 92 | 100 | 100 |  |  |  | 
COC(=O)CC(NC(=O)[C@@H](NC(=O)OC(C)C)C(C)C)c1nc2ccccc2s1 (mixture of isomers) [Compound 8, methyl (±)RS-[3-(N-isopropoxycarbonyl-S-valinyl)amino]-3-(benzothiazol-2-yl)propanoate] | 70 | 92 | 100 | 100 |  |  |  | 
